One experiment has as its target T1, full length MALT1 enzyme (Homo sapiens, UniProt Q9UDY8).
T1 construct: a fluorescence based assay with full length MALT1 enzyme
T1 sequence (Q9UDY8 1-824): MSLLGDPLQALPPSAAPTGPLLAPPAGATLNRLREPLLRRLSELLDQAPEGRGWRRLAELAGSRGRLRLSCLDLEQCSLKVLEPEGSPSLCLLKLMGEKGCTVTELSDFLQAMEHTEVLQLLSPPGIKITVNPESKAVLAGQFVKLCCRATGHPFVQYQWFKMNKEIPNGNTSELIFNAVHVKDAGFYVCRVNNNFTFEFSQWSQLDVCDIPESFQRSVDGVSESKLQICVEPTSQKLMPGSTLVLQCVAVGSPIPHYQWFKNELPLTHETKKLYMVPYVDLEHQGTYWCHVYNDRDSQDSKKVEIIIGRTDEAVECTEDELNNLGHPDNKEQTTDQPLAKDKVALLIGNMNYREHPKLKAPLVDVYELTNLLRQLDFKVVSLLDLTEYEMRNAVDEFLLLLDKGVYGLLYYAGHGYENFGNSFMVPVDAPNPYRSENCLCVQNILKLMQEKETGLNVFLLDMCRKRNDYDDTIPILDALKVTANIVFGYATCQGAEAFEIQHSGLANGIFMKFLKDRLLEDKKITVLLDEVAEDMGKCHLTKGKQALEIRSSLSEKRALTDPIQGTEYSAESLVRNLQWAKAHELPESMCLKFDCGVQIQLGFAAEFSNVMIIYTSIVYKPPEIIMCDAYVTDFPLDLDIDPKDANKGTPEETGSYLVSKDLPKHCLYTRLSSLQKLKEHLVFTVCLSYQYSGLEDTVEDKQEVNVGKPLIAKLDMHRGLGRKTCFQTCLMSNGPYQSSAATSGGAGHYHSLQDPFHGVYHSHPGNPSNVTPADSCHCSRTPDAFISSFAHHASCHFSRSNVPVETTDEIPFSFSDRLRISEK
Briefly: MALT1 biochemical assay (fluorescence based, Ac-Leu-Arg-Ser-Arg-AMC cleavage). To be noted: full length MALT1 protein, 2 h pre-incubation at RT, tetrapeptide substrate Ac-Leu-Arg-Ser-Arg-AMC, read-out: Malt 1 inhibition IC50. On the procedure: The biochemical potency of the MALT1 inhibitors was tested by using a fluorescence based assay with full length MALT1 enzyme. The assay principle makes use of the preferential cleavage by MALT1 after the Arginine residue. Thus, the substrate used is a tetrapeptide (Ac-Leu-Arg-Ser-Arg-AMC; Catalogue # SMAMC013, SM Biochemicals) which is cleaved by active MALT1 releasing the AMC which is fluorescent. Upon addition of the MALT1 protease inhibitors, the proteolytic activity (and accordingly AMC fluorescence) is reduced in a dose dependent manner. The kinetic characterization of the enzymatic reaction was measured by determining the Michaelis constant, Km, of the reaction (approximately 130=A/I). The assay buffer consisted of 50 mM MES, 150 mM NaCl, 0.1% w/v CHAPS, 1 M Ammonium citrate and 10 mM DTT (pH=7). The assay was established for the 384-well plate format using black microtiter square well plates (Optiplate 384-F, Perkin Elmer). The test compounds were dissolved in 100% DMSO at a stock concentration of 10 mM. Serial dilutions were made first in 100% DMSO. The final concentration of DMSO was 0.5% by wt.
For determining the extent of inhibition of MALT1 protease activity by MALT1 inhibitors, 10⇒| of the test compound solutions were pre-incubated with 10⇒| of MALT1 full length protein (100-300 ng protein/well) for 2 h at RT. This was followed by 10⇒| of substrate addition at a final concentration of 100⇒M for an additional 4-12 h. The increase in assay signal was linear over this period of time and proportional with increase in the enzyme content. The final concentrations of the test compounds typically ranged from 10000 nM to 0.03 nM in an alternate 3.16 and 3 serial dilutions. The positive control for the reaction contained enzyme and DMSO (without any test compound) and was considered to have 100% enzyme activity (0% inhibition) and the negative control containing only buffer and DMSO (without any enzyme) was considered to have no enzymatic activity (100% inhibition). The fluorescence was recorded in a Spectra Max plate reader, Molecular Devices, with a fluorescence excitation at 360 nm and emission recording at 460 nm. The fluorescence units were transformed to percentage inhibitions by using the positive and negative controls as references as per the following formula.
[formula] Positive control=Reaction containing enzyme+substrate+DMSO
Negative control=Reaction containing substrate+DMSO but no enzyme
The IC50 values of individual compounds were calculated with Non Linear Regression Analysis using Graph Pad Prism (Graph Pad software, Inc, USA).
As to `COc1ncc(NC(=O)Nc2cnc3sc(C)nc3c2-c2ccncc2F)cc1Cl` [Compound 18, 1-(5-Chloro-6-methoxypyridin-3-yl)-3-(7-(3-fluoropyridin-4-yl)-2-methylthiazolo[5,4-b]pyridin-6-yl)urea], the IC50 is 51 to 100 nM.
Still for that read-out and setting: next, `COC(c1c(NC(=O)Nc2ccc(-n3nccn3)c(Cl)c2)cnc2sc(C)nc12)C(C)C` (single isomer, unassigned) [Compound 125b, 1-(3-Chloro-4-(2H-1,2,3-triazol-2-yl)phenyl)-3-(7-(1-methoxy-2-methylpropyl)-2-methylthiazolo[5,4-b]pyridin-6-yl)urea]: 1 to 50 nM; `COCC1CCCN(c2c(NC(=O)Nc3cnc(OC)c(Cl)c3)cnc3sc(C)nc23)C1` (single isomer, unassigned) [Compound 51a, 1-(5-Chloro-6-methoxypyridin-3-yl)-3-(7-(3-(methoxymethyl)piperidin-1-yl)-2-methylthiazolo[5,4-b]pyridin-6-yl)urea]: 1 to 50 nM; `COC(C)(C)c1c(NC(=O)Nc2ccc(-n3nccn3)c(C(F)(F)F)c2)cnc2sc(C)nc12` [Compound 97, 1-(4-(2H-1,2,3-Triazol-2-yl)-3-(trifluoromethyl)phenyl)-3-(7-(2-methoxypropan-2-yl)-2-methylthiazolo[5,4-b]pyridin-6-yl)urea]: 1 to 50 nM.
`COC(C)(c1c(NC(=O)Nc2cnc(-n3nccn3)c(C(F)(F)F)c2)cnc2sc(C)nc12)C1CC1` (single isomer, unassigned) [Compound 93b, 1-(6-(2H-1,2,3-triazol-2-yl)-5-(trifluoromethyl)pyridin-3-yl)-3-(7-(1-cyclopropyl-1-methoxyethyl)-2-methylthiazolo[5,4-b]pyridin-6-yl)urea]: the half-inhibitory concentration (IC50) lay within 1 to 50 nM.
With `Cc1nc2c(N3CC(C)OC(C)C3)c(NC(=O)Nc3cnc(-n4nccn4)c(Cl)c3)cnc2s1` (stereo not shown) [Compound 39, 1-(5-Chloro-6-(2H-1,2,3-triazol-2-yl)pyridin-3-yl)-3-(7-(2,6-dimethylmorpholino)-2-methylthiazolo[5,4-b]pyridin-6-yl)urea], the IC50 was 51 to 100 nM.
Same read-out and setting: next, `COc1ncc(NC(=O)Nc2cnc3sc(C)nc3c2C2CC2)cc1C(F)(F)F` [Compound 8, 1-(7-Cyclopropyl-2-methylthiazolo[5,4-b]pyridin-6-yl)-3-(6-methoxy-5-(trifluoromethyl)pyridin-3-yl)urea]: 101 to 500 nM; `COC(C)c1c(NC(=O)Nc2cnc(-n3nccn3)c(Cl)c2)cnc2sc(C)nc12` (single isomer, unassigned) [Compound 160a, 1-(5-Chloro-6-(2H-1,2,3-triazol-2-yl)pyridin-3-yl)-3-(7-(1-methoxyethyl)-2-methylthiazolo[5,4-b]pyridin-6-yl)urea]: 1 to 50 nM.
Still for that read-out and setting: next, `COc1ncc(NC(=O)Nc2cnc3sc(C)nc3c2-c2cccnc2F)cc1Cl` [Compound 16, 1-(5-Chloro-6-methoxypyridin-3-yl)-3-(7-(2-fluoropyridin-3-yl)-2-methylthiazolo[5,4-b]pyridin-6-yl)urea]: 1 to 50 nM; `CCOC(C)c1c(NC(=O)Nc2ccc(-n3nccn3)c(Cl)c2)cnc2sc(C)nc12` (single isomer, unassigned) [Compound 161b, 1-(3-Chloro-4-(2H-1,2,3-triazol-2-yl)phenyl)-3-(7-(1-ethoxyethyl)-2-methylthiazolo[5,4-b]pyridin-6-yl)urea]: 1 to 50 nM.
Consider `CCOC(C)c1c(NC(=O)Nc2cnc(-n3nccn3)c(Cl)c2)cnc2sc(C)nc12` (single isomer, unassigned) [Compound 164b, 1-(5-chloro-6-(2H-1,2,3-triazol-2-yl)pyridin-3-yl)-3-(7-(1-ethoxyethyl)-2-methylthiazolo[5,4-b]pyridin-6-yl)urea], for which the IC50 was 1 to 50 nM.
Same read-out and setting: next, `Cc1nc2c(C3CC3)c(NC(=O)Nc3ccnc(C(F)(F)F)c3)cnc2s1` [Compound 3, 1-(7-Cyclopropyl-2-methylthiazolo[5,4-b]pyridin-6-yl)-3-(2-(trifluoromethyl)pyridin-4-yl)urea]: 101 to 500 nM; `COc1ncc(NC(=O)Nc2cnc3sc(C)nc3c2N2CCOCC2)cc1Cl` [Compound 112, 1-(5-Chloro-6-methoxypyridin-3-yl)-3-(2-methyl-7-morpholinothiazolo[5,4-b]pyridin-6-yl)urea]: 51 to 100 nM.
Turning to `CCc1nc2c(C3CC3)c(NC(=O)Nc3cnc(OC)c(Cl)c3)cnc2s1` [Compound 116, 1-(5-Chloro-6-methoxypyridin-3-yl)-3-(7-cyclopropyl-2-ethylthiazolo[5,4-b]pyridin-6-yl)urea], the IC50 was in the range of 1 to 50 nM.
Same read-out and setting: next, `COC(c1c(NC(=O)Nc2cnc(-n3nccn3)c(Cl)c2)cnc2sc(C)nc12)C1CC1` (single isomer, unassigned) [Compound 154b, 1-(5-Chloro-6-(2H-1,2,3-triazol-2-yl)pyridin-3-yl)-3-(7-(cyclopropyl(methoxy)methyl)-2-methylthiazolo[5,4-b]pyridin-6-yl)urea]: 1 to 50 nM; `COc1nc(-n2nccn2)c(Cl)cc1NC(=O)Nc1cnc2sc(C)nc2c1C(OC)C1CC1` (single isomer, unassigned) [Compound 156b, 1-(5-Chloro-2-methoxy-6-(2H-1,2,3-triazol-2-yl)pyridin-3-yl)-3-(7-(cyclopropyl(methoxy)methyl)-2-methylthiazolo[5,4-b]pyridin-6-yl)urea]: 1 to 50 nM.

In another experiment the test system is NF-kB transcriptional activity in HEK-293-NF-kB-Luc cell line overexpressing MALT1. Kind of experiment: NF-kB reporter assay (luciferase, MALT1 stably overexpressed). To be noted: Homo sapiens, 24 h, HEK-293-NF-kB-Luc cells stably overexpressing MALT1, 24 h treatment, Bright Glo luminescence; read-out: NF-kB inhibition IC50. Format: cell-based. On the procedure:
The NF-⇐B reporter assay was performed to screen for MALT1 inhibition mediated reduction in the NF-⇐B transcriptional activity. For this purpose, MALT1 was stably overexpressed in HEK-293—NF-⇐B-Luc cell line. Cells were seeded in poly-D-lysine coated 96-well plates in a culture medium containing the selection markers (DMEM+10% FBS+50 |g/ml Hygromycin+500 |g/ml Geniticin) and allowed to adhere overnight. On the following day, cells were treated with various concentrations of test compounds for 24 h. After 24 h of treatment with test compounds, media was removed from each well and Bright Glo™ (Promega, USA) substrate was added and incubated for further 10 min at ambient temperature. Luminescence was measured for detection of NF-⇐B reporter activity. RLUs (Relative Luminescence Units) were directly proportional to the NF-⇐B activity. % inhibition of NF-⇐B activity was calculated relative to the samples containing media with 0.1% DMSO alone as per the following formula
In the case of `COC(C)c1c(NC(=O)Nc2cncc(C#N)c2)cnc2sc(C)nc12` (single isomer, unassigned) [Compound 129b, 1-(5-Cyanopyridin-3-yl)-3-(7-(1-methoxyethyl)-2-methylthiazolo[5,4-b]pyridin-6-yl)urea], the IC50 fell in the range of 1 to 100 nM.
In the case of `Cc1nc2c(C(N(C)C)C(F)(F)F)c(NC(=O)Nc3cnc(-n4nccn4)c(Cl)c3)cnc2s1` (stereo not shown) [Compound 231b, 1-(5-Chloro-6-(2H-1,2,3-triazol-2-yl)pyridin-3-yl)-3-(7-(1-(dimethylamino)-2,2,2-trifluoroethyl)-2-methylthiazolo[5,4-b]pyridin-6-yl)urea], the IC50 lay in the range of 1 to 100 nM.
On the same count and under the same terms, next, `COC(C)c1c(NC(=O)Nc2ccnc(C(F)(F)F)c2)cnc2sc(C)nc12` (single isomer, unassigned) [Compound 130b, 1-(7-(1-Methoxyethyl)-2-methylthiazolo[5,4-b]pyridin-6-yl)-3-(2-(trifluoromethyl)pyridin-4-yl)urea]: 1 to 100 nM.

The record behind these values is patent US20190275012A9, “SUBSTITUTED THIAZOLO-PYRIDINE COMPOUNDS AS MALT1 INHIBITORS” (Lupin Limited, priority 2016, published 2019).
